In PMC5666514 (Chemical Science, 2015):
Where two headings read alike, the source gives them in different places. *1 amine or outer side, *2 acyl side, *3 side chain or, on linkers, in order; H or OH if unused. Where a SMILES comes first, the peptide text is derived from it. Bridges are numbered along the chain shown (N, C = ends). Roman numbers before positions name the chains, in order. [ ]: non-standard residue; d: D form. The star is where a group is joined. 5FAM = O=C1OC2(c3ccc(O)cc3Oc3cc(O)ccc32)c2ccc(C(=O)*)cc21; Quinoxaline2carbonyl = O=C(c1cnc2ccccc2n1)*; Ethylenediamine = C(CN[*:2])N[*:1]; NMeV = CN[C@H](C(=O)O)C(C)C; NMeAbu = CC[C@H](NC)C(=O)O; NMeC = CN[C@@H](CS)C(=O)O; Abu = CC[C@H](N)C(=O)O; Dap = NC[C@H](N)C(=O)O

Legend:
[1] = tested on: SK-BR-3 breast adenocarcinoma cells; assay: cells; format: cell-based, human
Description: (§1) The twelve synthesized compounds were evaluated in vitro using the following four human cancer cell lines: cervical adenocarcinoma (HeLa), lung carcinoma (A-549), breast adenocarcinoma (SK-BR-3) and colon adenocarcinoma (HT-29). Cells were treated for 24 h with various concentrations of the compounds, and their cytotoxic activity was then assessed using the [3-(4,5-dimethylthiazol-2-yl)-2,5-diphenyltetrazolium] bromide (MTT) assay.[29] Analysis of the dose-response data obtained yielded IC50 (50% inhibitory concentration) values, which are detailed in Table 1.
(§2) Normally growing cells were plated at 5 × 10^3 cells per well into 96-well plates and incubated for 24 h at 37 °C to allow attachment to the surface. Samples were then added dissolved in a DMSO–PBS vehicle (less than 1% in culture medium) at a range of concentrations. Drugs were run in triplicate or greater and control wells contained appropriate percentages of vehicle. After 24 h of exposure, the antitumor effect was measured using a solution of MTT, which is bioreduced by viable cells into formazan. The formed crystals were solubilized using DMSO and the amount of formazan was measured by reading the absorbance at 570 nm. The absorbance of wells containing only the MTT reagent (the plate blank) was subtracted from all wells.
(§3) The IC50 values were determined by dose response curve analysis and statistical analysis using GraphPad Prism software version 5.0a. […]
(§4) mM L-glutamine and antibiotics.
(§5) in a humidified atmosphere containing 5% CO2. For sub-culturing, cells were detached from
(§6) 5 mL of fresh medium preheated at 37 °C. Cellular density was determined in a Neubauer

[2] = tested on: HeLa cervical adenocarcinoma cells; assay: cells; format: cell-based, human
Description: as §1, §2, §3, §4, §5, §6

[3] = tested on: HT-29 colon adenocarcinoma cells; assay: cells; format: cell-based, human
Description: as §1, §2, §3, §4, §5, §6

[4] = tested on: A-549 lung carcinoma cells; assay: cells; format: cell-based, human
Description: as §1, §2, §3, §4, §5, §6

red blood cells = conditions: human RBCs, PBS, 1 h at 37 °C, concentrations up to 100 μM, absorbance 560 nm, n=3
[5] = tested on: DNA (footprinting substrates MS1 and HexA); assay: DNase I footprinting; format: binding; conditions: MS1 and HexA fragments; RZ compounds up to 500 μM (RZ2 up to 1 mM)
Description: compounds are 500 M and 100 M; the concentrations for echinomycin are 10 M and 5 M.

[6] = MTT assay, 24 h exposure, run in triplicate or greater, read-out: IC50, Cervix HeLa
[7] = MTT assay, 24 h exposure, run in triplicate or greater, read-out: IC50, Breast SK-BR-3
[8] = MTT assay, 24 h exposure, run in triplicate or greater, read-out: IC50, Colon HT-29
[9] = MTT assay, 24 h exposure, run in triplicate or greater, read-out: IC50, Lung A-549

Row | Compound | IC50 ([1]; 24 h) [µM] | IC50 ([2]; 24 h) [µM] | IC50 ([3]; 24 h) [µM] | IC50 ([4]; 24 h) [µM] | further results
1 | COc1cccc2c1C(=O)c1c(O)c3c(c(O)c1C2=O)C[C@@](O)(C(=O)CO)C[C@@H]3O[C@H]1C[C@H](N)[C@H](O)[C@H](C)O1 [Doxorubicin, reference compound] | – | – | – | – | IC50 ([1]; Homo sapiens, SK-BR-3, MTT assay, 24 h exposure, run in triplicate or greater, read-out: IC50, Breast SK-BR-3): 0.5 µM; IC50 ([2]; Homo sapiens, HeLa, MTT assay, 24 h exposure, run in triplicate or greater, read-out: IC50, Cervix HeLa): 5.4 µM; IC50 ([3]; Homo sapiens, HT-29, MTT assay, 24 h exposure, run in triplicate or greater, read-out: IC50, Colon HT-29): 8.9 µM; IC50 ([4]; Homo sapiens, A549, MTT assay, 24 h exposure, run in triplicate or greater, read-out: IC50, Lung A-549): 0.6 µM
2 | CC[C@@H](C(=O)N(C)[C@H](C(=O)N[C@H](C(=O)N1CCC[C@@H]1C(=O)NCC(=O)N[C@H](C(=O)N(C)[C@H](C(=O)N(C)[C@@H](CC)C(=O)NCCNC(=O)c1cnc2ccccc2n1)C(C)C)C(C)C)C(C)C)C(C)C)N(C)C(=O)[C@H](CO)NC(=O)c1cnc2ccccc2n1 [RZ1] (Quinoxaline2carbonyl-S[NMeAbu][NMeV]V[dP]GV[NMeV][NMeAbu]-{Ethylenediamine-Quinoxaline2carbonyl}) | 96.7 | 42.2 | 88.4 | 51.2 | –
3 | CC[C@H](NC(=O)[C@H](CNC(=O)c1ccc2c(c1)C(=O)OC21c2ccc(O)cc2Oc2cc(O)ccc21)NC(=O)c1cnc2ccccc2n1)C(=O)N[C@H](C(=O)N[C@H](C(=O)N1CCC[C@@H]1C(=O)NCC(=O)N[C@H](C(=O)N[C@H](C(=O)N[C@@H](CC)C(=O)NCCNC(=O)c1cnc2ccccc2n1)C(C)C)C(C)C)C(C)C)C(C)C [RZ2CF] (Quinoxaline2carbonyl-[Dap](5FAM)[Abu]VV[dP]GVV[Abu]-{Ethylenediamine-Quinoxaline2carbonyl}) | – | – | – | – | IC50 [2, 6]: 16.7 µM
4 | CC[C@H](NC(=O)[C@H](CO)NC(=O)c1cnc2ccccc2n1)C(=O)N[C@H](C(=O)N[C@H](C(=O)N1CCC[C@@H]1C(=O)NCC(=O)N[C@H](C(=O)N[C@H](C(=O)N[C@@H](CC)C(=O)NCCNC(=O)c1cnc2ccccc2n1)C(C)C)C(C)C)C(C)C)C(C)C [RZ2] (Quinoxaline2carbonyl-S[Abu]VV[dP]GVV[Abu]-{Ethylenediamine-Quinoxaline2carbonyl}) | – | – | – | – | IC50 [1, 7]: 5.4 µM; IC50 [2, 6]: 2.7 µM; IC50 [3, 8]: 6.8 µM; IC50 [4, 9]: 11.9 µM; hemolysis (hemoglobin release from red blood cells) (red blood cells): not hemolytic
5 | CC[C@@H](C(=O)NCCNC(=O)c1cnc2ccccc2n1)N(C)C(=O)[C@H](C(C)C)N(C)C(=O)[C@@H](NC(=O)CNC(=O)[C@H]1CCCN1C(=O)[C@@H](NC(=O)[C@H](C(C)C)N(C)C(=O)[C@H](CC)N(C)C(=O)[C@@H](CO)NC(=O)c1cnc2ccccc2n1)C(C)C)C(C)C [RZ3] (Quinoxaline2carbonyl-[dS][NMeAbu][NMeV]V[dP]GV[NMeV][NMeAbu]-{Ethylenediamine-Quinoxaline2carbonyl}) | 98.1 | 93.8 | 72.3 | 65.8 | –
6 | CC[C@H](NC(=O)[C@@H](NC(=O)[C@@H](NC(=O)CNC(=O)[C@H]1CCCN1C(=O)[C@@H](NC(=O)[C@@H](NC(=O)[C@H](CC)NC(=O)[C@@H](CO)NC(=O)c1cnc2ccccc2n1)C(C)C)C(C)C)C(C)C)C(C)C)C(=O)NCCNC(=O)c1cnc2ccccc2n1 [RZ4] (Quinoxaline2carbonyl-[dS][Abu]VV[dP]GVV[Abu]-{Ethylenediamine-Quinoxaline2carbonyl}) | – | – | – | – | IC50 [1, 7]: > 100 µM; IC50 [2, 6]: 30.9 µM; IC50 [3, 8]: 75 µM; IC50 [4, 9]: 34.9 µM
7 | CC[C@@H](C(=O)N(C)[C@H](C(=O)N[C@H](C(=O)N1CCC[C@@H]1C(=O)NCC(=O)N[C@H](C(=O)N(C)[C@H](C(=O)N(C)[C@@H](CC)C(=O)NCCNC(=O)c1cnc2ccccc2n1)C(C)C)[C@@H](C)O)[C@@H](C)O)C(C)C)N(C)C(=O)[C@H](CO)NC(=O)c1cnc2ccccc2n1 [RZ5] (Quinoxaline2carbonyl-S[NMeAbu][NMeV]T[dP]GT[NMeV][NMeAbu]-{Ethylenediamine-Quinoxaline2carbonyl}) | 84.6 | > 100 | 84.8 | 70.7 | –
8 | CC[C@H](NC(=O)[C@H](CO)NC(=O)c1cnc2ccccc2n1)C(=O)N[C@H](C(=O)N[C@H](C(=O)N1CCC[C@@H]1C(=O)NCC(=O)N[C@H](C(=O)N[C@H](C(=O)N[C@@H](CC)C(=O)NCCNC(=O)c1cnc2ccccc2n1)C(C)C)[C@@H](C)O)[C@@H](C)O)C(C)C [RZ6] (Quinoxaline2carbonyl-S[Abu]VT[dP]GTV[Abu]-{Ethylenediamine-Quinoxaline2carbonyl}) | 55.3 | 45.6 | 83.1 | 84.5 | –
9 | CC[C@@H](C(=O)NCCNC(=O)c1cnc2ccccc2n1)N(C)C(=O)[C@H](C(C)C)N(C)C(=O)[C@@H](NC(=O)CNC(=O)[C@H]1CCCN1C(=O)[C@@H](NC(=O)[C@H](C(C)C)N(C)C(=O)[C@H](CC)N(C)C(=O)[C@@H](CO)NC(=O)c1cnc2ccccc2n1)[C@@H](C)O)[C@@H](C)O [RZ7] (Quinoxaline2carbonyl-[dS][NMeAbu][NMeV]T[dP]GT[NMeV][NMeAbu]-{Ethylenediamine-Quinoxaline2carbonyl}) | > 100 | 84.5 | 90.7 | 72.8 | –
10 | CC[C@H](NC(=O)[C@@H](NC(=O)[C@@H](NC(=O)CNC(=O)[C@H]1CCCN1C(=O)[C@@H](NC(=O)[C@@H](NC(=O)[C@H](CC)NC(=O)[C@@H](CO)NC(=O)c1cnc2ccccc2n1)C(C)C)[C@@H](C)O)[C@@H](C)O)C(C)C)C(=O)NCCNC(=O)c1cnc2ccccc2n1 [RZ8] (Quinoxaline2carbonyl-[dS][Abu]VT[dP]GTV[Abu]-{Ethylenediamine-Quinoxaline2carbonyl}) | 44.5 | 37.1 | 39.8 | 23.4 | –
11 | CC[C@H](C)[C@H](NC(=O)CNC(=O)[C@H]1CCCN1C(=O)[C@@H](NC(=O)[C@H](C(C)C)N(C)C(=O)[C@H](CC)N(C)C(=O)[C@H](CO)NC(=O)c1cnc2ccccc2n1)[C@@H](C)CC)C(=O)N(C)[C@H](C(=O)N(C)[C@@H](CC)C(=O)NCCNC(=O)c1cnc2ccccc2n1)C(C)C [RZ9] (Quinoxaline2carbonyl-S[NMeAbu][NMeV]I[dP]GI[NMeV][NMeAbu]-{Ethylenediamine-Quinoxaline2carbonyl}) | 90.6 | 50.9 | 84.4 | 60.9 | –
12 | CC[C@H](NC(=O)[C@H](CO)NC(=O)c1cnc2ccccc2n1)C(=O)N[C@H](C(=O)N[C@H](C(=O)N1CCC[C@@H]1C(=O)NCC(=O)N[C@H](C(=O)N[C@H](C(=O)N[C@@H](CC)C(=O)NCCNC(=O)c1cnc2ccccc2n1)C(C)C)[C@@H](C)CC)[C@@H](C)CC)C(C)C [RZ10] (Quinoxaline2carbonyl-S[Abu]VI[dP]GIV[Abu]-{Ethylenediamine-Quinoxaline2carbonyl}) | 62.1 | 14.1 | 53.8 | 26.8 | –
13 | CC[C@H](C)[C@H](NC(=O)CNC(=O)[C@H]1CCCN1C(=O)[C@@H](NC(=O)[C@H](C(C)C)N(C)C(=O)[C@H](CC)N(C)C(=O)[C@@H](CO)NC(=O)c1cnc2ccccc2n1)[C@@H](C)CC)C(=O)N(C)[C@H](C(=O)N(C)[C@@H](CC)C(=O)NCCNC(=O)c1cnc2ccccc2n1)C(C)C [RZ11] (Quinoxaline2carbonyl-[dS][NMeAbu][NMeV]I[dP]GI[NMeV][NMeAbu]-{Ethylenediamine-Quinoxaline2carbonyl}) | 78.9 | 24.3 | 64.7 | 96.3 | –
14 | CC[C@H](NC(=O)[C@@H](NC(=O)[C@@H](NC(=O)CNC(=O)[C@H]1CCCN1C(=O)[C@@H](NC(=O)[C@@H](NC(=O)[C@H](CC)NC(=O)[C@@H](CO)NC(=O)c1cnc2ccccc2n1)C(C)C)[C@@H](C)CC)[C@@H](C)CC)C(C)C)C(=O)NCCNC(=O)c1cnc2ccccc2n1 [RZ12] (Quinoxaline2carbonyl-[dS][Abu]VI[dP]GIV[Abu]-{Ethylenediamine-Quinoxaline2carbonyl}) | 71.6 | 55.4 | > 100 | 82.2 | –
15 | CC(C)[C@H]1C(=O)OC[C@@H](NC(=O)c2cnc3ccccc3n2)C(=O)N[C@@H](C)C(=O)N(C)[C@H]2CSSC[C@@H](C(=O)N1C)N(C)C(=O)[C@H](C)NC(=O)[C@H](NC(=O)c1cnc3ccccc3n1)COC(=O)[C@H](C(C)C)N(C)C2=O [Triostin A, reference compound] (I: Quinoxaline2carbonyl-[dS]A[NMeC][NMeV] / II: Quinoxaline2carbonyl-[dS]A[NMeC][NMeV]; ester I:1-II:C, I:C-II:1; disulfide I:3-II:3) | – | – | – | – | IC50 [1, 7]: 23.1 µM; IC50 [2, 6]: 18.8 µM; IC50 [3, 8]: 24.7 µM; IC50 [4, 9]: 23.5 µM
16 | echinomycin | – | – | – | – | DNase I footprint (DNA binding) [5]: Clear footprints
